Laboratory results: publication PMC3961306, “Comparison of the Cancer Gene Targeting and Biochemical Selectivities of All Targeted Kinase Inhibitors Approved for Clinical Use” (PLoS ONE, 2014)

How the values were obtained:
Assay in all cases: Kinase profiling in a biochemical assay panel (mobility shift assays and ELISA), %-inhibition at 1 μM; selectivity entropy
[1] = molecular target: panel of more than 300 wild-type and mutant kinases (313 kinase panel) (Homo sapiens, UniProt P29376); conditions: kinase LTK; compound at 1 μM
[2] = molecular target: panel of more than 300 wild-type and mutant kinases (313 kinase panel) (Homo sapiens, UniProt Q9H0K1); conditions: kinase QIK; 1 μM
[3] = molecular target: panel of more than 300 wild-type and mutant kinases (313 kinase panel) (Homo sapiens, UniProt P07949, Y791F)
[4] = molecular target: panel of more than 300 wild-type and mutant kinases (313 kinase panel) (Homo sapiens, UniProt Q8N568)
[5] = molecular target: T1, panel of more than 300 wild-type and mutant kinases (313 kinase panel) (Homo sapiens, UniProt Q14164); conditions: kinase IKKε; compound at 1 μM
T1 sequence (Q14164 1-716): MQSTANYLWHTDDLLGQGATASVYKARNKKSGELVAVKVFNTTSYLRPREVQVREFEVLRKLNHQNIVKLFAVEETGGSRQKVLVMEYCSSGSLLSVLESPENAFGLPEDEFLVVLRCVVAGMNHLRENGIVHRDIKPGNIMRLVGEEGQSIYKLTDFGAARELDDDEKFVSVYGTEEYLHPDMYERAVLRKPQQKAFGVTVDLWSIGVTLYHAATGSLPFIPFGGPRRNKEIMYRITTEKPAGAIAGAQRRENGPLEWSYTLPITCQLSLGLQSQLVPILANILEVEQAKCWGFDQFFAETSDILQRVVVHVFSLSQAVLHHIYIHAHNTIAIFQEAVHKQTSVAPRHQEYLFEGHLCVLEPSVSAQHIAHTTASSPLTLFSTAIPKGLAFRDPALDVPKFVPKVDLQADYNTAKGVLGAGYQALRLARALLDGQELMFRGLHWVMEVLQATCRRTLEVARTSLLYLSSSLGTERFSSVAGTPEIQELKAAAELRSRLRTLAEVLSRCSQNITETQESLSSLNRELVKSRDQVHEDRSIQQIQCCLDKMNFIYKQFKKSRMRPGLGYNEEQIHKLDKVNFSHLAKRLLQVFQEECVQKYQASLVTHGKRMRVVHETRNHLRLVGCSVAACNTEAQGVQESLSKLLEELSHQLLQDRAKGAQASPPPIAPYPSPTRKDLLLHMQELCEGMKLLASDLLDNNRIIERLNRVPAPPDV

[6] = molecular target: panel of more than 300 wild-type and mutant kinases (313 kinase panel) (Homo sapiens, UniProt Q9P289); conditions: kinase MST4; 1 μM
[7] = molecular target: T2, panel of more than 300 wild-type and mutant kinases (313 kinase panel) (Homo sapiens, UniProt P54753)
T2 sequence (P54753 34-998): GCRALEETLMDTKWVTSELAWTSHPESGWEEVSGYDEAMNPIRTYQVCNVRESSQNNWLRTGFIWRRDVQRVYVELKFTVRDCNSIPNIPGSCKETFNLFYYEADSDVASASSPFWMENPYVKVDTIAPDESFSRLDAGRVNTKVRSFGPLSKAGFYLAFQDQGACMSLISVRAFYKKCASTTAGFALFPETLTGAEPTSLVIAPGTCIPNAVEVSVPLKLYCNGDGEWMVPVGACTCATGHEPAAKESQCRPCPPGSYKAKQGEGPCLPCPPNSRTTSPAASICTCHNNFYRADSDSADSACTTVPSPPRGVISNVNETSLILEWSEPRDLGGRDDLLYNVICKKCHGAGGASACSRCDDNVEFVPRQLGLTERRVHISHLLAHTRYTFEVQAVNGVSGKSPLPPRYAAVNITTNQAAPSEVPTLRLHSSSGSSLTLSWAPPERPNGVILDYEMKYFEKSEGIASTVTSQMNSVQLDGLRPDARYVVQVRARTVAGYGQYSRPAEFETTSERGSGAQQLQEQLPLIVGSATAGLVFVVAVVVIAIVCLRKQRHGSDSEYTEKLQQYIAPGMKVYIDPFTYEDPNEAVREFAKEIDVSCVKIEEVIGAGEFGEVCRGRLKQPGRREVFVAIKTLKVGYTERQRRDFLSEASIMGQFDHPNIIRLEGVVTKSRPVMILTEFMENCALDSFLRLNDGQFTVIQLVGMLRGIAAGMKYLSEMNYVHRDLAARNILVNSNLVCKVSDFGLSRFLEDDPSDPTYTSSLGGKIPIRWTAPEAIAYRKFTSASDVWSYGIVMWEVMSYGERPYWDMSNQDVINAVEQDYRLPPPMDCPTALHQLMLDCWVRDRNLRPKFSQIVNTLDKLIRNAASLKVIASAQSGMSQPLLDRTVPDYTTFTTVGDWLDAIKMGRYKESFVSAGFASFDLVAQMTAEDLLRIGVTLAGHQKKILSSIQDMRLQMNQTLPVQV

[8] = molecular target: panel of more than 300 wild-type and mutant kinases (313 kinase panel) (Homo sapiens, UniProt Q96SB4); conditions: kinase SRPK1; 1 μM
[9] = kinase DCAMKL2, compound at 1 μM

panel of more than 300 wild-type and mutant kinases (313 kinase panel) (Homo sapiens, UniProt Q96SB4), sequence (Q96SB4 whole entry, change not shown): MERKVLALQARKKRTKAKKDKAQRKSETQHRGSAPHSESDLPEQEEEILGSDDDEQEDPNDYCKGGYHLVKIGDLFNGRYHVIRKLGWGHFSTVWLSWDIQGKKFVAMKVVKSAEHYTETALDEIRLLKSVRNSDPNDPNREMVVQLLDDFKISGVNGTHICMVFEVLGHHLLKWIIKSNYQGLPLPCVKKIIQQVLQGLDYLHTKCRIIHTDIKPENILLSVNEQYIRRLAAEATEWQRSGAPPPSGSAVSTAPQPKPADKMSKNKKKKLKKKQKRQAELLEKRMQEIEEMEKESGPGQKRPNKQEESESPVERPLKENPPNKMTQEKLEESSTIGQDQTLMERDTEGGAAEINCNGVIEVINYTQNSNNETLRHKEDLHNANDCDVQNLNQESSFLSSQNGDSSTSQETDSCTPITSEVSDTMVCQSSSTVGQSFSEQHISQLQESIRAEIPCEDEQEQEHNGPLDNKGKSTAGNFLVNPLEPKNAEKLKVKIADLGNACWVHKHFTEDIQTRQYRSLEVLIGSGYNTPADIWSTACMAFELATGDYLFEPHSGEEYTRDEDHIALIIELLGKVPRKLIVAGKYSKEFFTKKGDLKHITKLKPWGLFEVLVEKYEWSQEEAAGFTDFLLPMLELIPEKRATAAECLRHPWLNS
panel of more than 300 wild-type and mutant kinases (313 kinase panel) (Homo sapiens, UniProt Q9H0K1), sequence (Q9H0K1 whole entry, stated change not applied): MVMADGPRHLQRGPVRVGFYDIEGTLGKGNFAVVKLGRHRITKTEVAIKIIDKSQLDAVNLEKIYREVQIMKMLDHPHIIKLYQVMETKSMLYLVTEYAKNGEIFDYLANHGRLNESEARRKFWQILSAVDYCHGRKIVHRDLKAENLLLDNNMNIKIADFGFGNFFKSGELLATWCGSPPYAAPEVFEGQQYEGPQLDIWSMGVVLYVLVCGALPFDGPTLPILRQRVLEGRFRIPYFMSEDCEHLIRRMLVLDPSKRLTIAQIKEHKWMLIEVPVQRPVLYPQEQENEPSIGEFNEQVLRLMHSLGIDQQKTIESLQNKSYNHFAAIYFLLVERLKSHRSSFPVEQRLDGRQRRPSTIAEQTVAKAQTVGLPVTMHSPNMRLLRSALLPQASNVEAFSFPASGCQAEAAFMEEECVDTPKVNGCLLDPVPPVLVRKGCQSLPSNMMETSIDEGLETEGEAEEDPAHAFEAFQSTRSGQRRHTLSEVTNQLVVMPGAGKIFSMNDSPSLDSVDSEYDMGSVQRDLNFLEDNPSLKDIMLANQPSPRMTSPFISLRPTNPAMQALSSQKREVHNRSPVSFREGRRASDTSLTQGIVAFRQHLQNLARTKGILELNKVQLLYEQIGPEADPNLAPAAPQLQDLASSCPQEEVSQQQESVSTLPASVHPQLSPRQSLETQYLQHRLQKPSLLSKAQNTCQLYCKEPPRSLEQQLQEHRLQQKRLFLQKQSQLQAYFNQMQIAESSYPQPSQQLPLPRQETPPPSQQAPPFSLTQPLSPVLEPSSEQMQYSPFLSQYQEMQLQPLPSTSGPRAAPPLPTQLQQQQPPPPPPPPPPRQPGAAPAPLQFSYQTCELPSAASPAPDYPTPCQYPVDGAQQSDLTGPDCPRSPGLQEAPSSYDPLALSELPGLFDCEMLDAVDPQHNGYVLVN
panel of more than 300 wild-type and mutant kinases (313 kinase panel) (Homo sapiens, UniProt Q9P289), sequence (Q9P289 whole entry, change not shown): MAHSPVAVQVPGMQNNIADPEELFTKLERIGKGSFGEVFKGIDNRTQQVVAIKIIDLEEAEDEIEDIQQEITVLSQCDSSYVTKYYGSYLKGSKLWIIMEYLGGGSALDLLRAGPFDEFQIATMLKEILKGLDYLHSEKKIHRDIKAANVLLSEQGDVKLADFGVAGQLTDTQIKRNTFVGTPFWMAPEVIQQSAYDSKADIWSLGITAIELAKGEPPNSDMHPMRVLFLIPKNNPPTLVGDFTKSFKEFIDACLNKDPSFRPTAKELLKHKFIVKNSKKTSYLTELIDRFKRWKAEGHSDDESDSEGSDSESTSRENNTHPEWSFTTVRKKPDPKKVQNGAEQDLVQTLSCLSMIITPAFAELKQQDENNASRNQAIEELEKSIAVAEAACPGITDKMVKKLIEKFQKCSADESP
panel of more than 300 wild-type and mutant kinases (313 kinase panel) (Homo sapiens, UniProt P07949, Y791F), sequence (P07949 29-1114 Y791F): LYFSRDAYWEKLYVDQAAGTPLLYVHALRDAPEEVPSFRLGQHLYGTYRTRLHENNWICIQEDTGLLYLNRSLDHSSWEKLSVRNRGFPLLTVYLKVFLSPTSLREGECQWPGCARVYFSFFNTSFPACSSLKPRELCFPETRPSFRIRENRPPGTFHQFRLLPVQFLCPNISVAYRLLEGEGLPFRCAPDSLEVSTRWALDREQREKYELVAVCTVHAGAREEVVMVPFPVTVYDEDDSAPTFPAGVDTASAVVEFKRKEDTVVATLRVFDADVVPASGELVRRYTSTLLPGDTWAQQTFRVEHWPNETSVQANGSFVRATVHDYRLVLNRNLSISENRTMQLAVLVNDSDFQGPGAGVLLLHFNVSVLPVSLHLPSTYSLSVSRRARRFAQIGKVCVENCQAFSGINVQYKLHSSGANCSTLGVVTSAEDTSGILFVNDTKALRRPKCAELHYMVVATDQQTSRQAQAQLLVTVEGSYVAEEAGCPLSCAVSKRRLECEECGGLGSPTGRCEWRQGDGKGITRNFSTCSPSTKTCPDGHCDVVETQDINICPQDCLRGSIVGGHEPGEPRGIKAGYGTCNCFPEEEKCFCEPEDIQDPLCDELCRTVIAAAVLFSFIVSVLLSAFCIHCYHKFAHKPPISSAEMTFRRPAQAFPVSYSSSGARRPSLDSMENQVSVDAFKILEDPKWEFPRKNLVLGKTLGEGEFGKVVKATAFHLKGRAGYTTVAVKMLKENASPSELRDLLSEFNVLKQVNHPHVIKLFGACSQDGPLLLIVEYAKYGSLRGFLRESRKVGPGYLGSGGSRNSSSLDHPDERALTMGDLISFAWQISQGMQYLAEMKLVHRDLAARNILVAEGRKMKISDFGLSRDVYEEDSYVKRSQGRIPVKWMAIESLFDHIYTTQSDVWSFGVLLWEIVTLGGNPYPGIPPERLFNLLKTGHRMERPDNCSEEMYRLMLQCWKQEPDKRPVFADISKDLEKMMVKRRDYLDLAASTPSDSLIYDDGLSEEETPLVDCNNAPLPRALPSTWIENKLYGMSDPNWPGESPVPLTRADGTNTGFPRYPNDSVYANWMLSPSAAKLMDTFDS

Compound	%-inhibition of LTK [1] [%]	%-inhibition of QIK [2] [%]	%-inhibition of RET(Y791F) ([3]; kinase RET(Y791F), 1 μM) [%]	%-inhibition of DCAMKL2 [4, 9] [%]	%-inhibition of IKKε [5] [%]	%-inhibition of MST4 [6] [%]	%-inhibition of EPHB3 ([7]; kinase EPHB3, compound at 1 μM) [%]	%-inhibition of SRPK1 [8] [%]	%-inhibition of RET(Y791F) ([3]; 1 µM) [%]	%-inhibition of DCAMKL2 ([4]; 1 µM) [%]	%-inhibition of EPHB3 ([7]; 1 µM) [%]
COc1cc(Nc2c(C#N)cnc3cc(OCCCN4CCN(C)CC4)c(OC)cc23)c(Cl)cc1Cl [bosutinib]	59	100	93	-2.32	4.39	–	–	–	–	–	–
COc1cc2nccc(Oc3ccc(NC(=O)C4(C(=O)Nc5ccc(F)cc5)CC4)cc3)c2cc1OC [cabozantinib]	61	0.408	–	-2.62	-7.58	-1.74	85	37	–	–	–
C[C@@H](Oc1cc(-c2cnn(C3CCNCC3)c2)cnc1N)c1c(Cl)ccc(F)c1Cl [crizotinib]	–	38	–	49	7.49	0.54	5	4.55	–	–	–
CC(C)(C)c1nc(-c2cccc(NS(=O)(=O)c3c(F)cccc3F)c2F)c(-c2ccnc(N)n2)s1 [dabrafenib]	2.67	80	36	19	15	-7	3	–	–	–	–
Cc1nc(Nc2ncc(C(=O)Nc3c(C)cccc3Cl)s2)cc(N2CCN(CCO)CC2)n1 [dasatinib]	–	–	–	2	–	–	–	-2.17	–	–	–
CS(=O)(=O)CCNCc1ccc(-c2ccc3ncnc(Nc4ccc(OCc5cccc(F)c5)c(Cl)c4)c3c2)o1 [lapatinib]	4.66	-4.72	–	7	-5	–	5	0.333	-5	–	–
Cc1ccc(C(=O)Nc2ccc(CN3CCN(C)CC3)c(C(F)(F)F)c2)cc1C#Cc1cnc2cccnn12 [ponatinib]	85	51	102	-3.72	-9	–	101	–	–	–	–
N#CC[C@H](C1CCCC1)n1cc(-c2ncnc3[nH]ccc23)cn1 [ruxolitinib]	97	35	–	–	15	-3	–	2.4	–	64	2.73
CCN(CC)CCNC(=O)c1c(C)[nH]c(/C=C2\C(=O)Nc3ccc(F)cc32)c1C [sunitinib]	81	–	–	–	–	34	–	5	–	–	–
COc1cc2c(Nc3ccc(Br)cc3F)ncnc2cc1OCC1CCN(C)CC1 [vandetanib]	–	95	–	-5	-6.49	-2.22	8	3	–	–	–
